According to US10500198B2, “Bis-benzylidine piperidone proteasome inhibitor with anticancer activity” (The Johns Hopkins University, priority 2013, dated 2019):
Structures can show the parent of a compound that is named as a salt.

Columns and labels:
[1] = tested on: C33A; assay: Cell viability after 48-hr treatment (Table 1); assay type: cell-based; conditions: Homo sapiens, C-33-A; 48-hr treatment; XTT assay; read-out: IC50, C33A
Experimental: (§1) Cell viability was assayed using CellTiter 960 AQueous One Solution Reagent (Promega, Madison, Wis.). Cells seeded at the concentration of 1,000 cells/well for HeLa, 5,000 cells/well for ES2 and HCT116 and 10,000-20,000 cells/well for other cell lines in 100 μL medium in 96-well plate were treated with RA series compounds at specified concentrations. […]

[2] = tested on: FaDu; assay: Cell viability after 48-hr treatment (Table 1); assay type: cell-based; conditions: Homo sapiens, FaDu; 48-hr treatment; XTT assay; read-out: IC50, FaDu
Experimental: as §1

[3] = tested on: MM.1S; assay: Cell viability after 48-hr treatment (Table 1); assay type: cell-based; conditions: Homo sapiens, MM1.S, XTT assay
Experimental: as §1

[4] = tested on: SKOV3; assay: Cell viability after 48-hr treatment (Table 1); assay type: cell-based; conditions: Homo sapiens, SK-OV-3; 48-hr treatment; XTT assay; read-out: IC50, SKOV3
Experimental: as §1

[5] = tested on: OVCAR3; assay: Cell viability after 48-hr treatment (Table 1); assay type: cell-based, human; conditions: Homo sapiens, OVCAR-3, XTT assay
Experimental: as §1

[6] = tested on: HeLa; assay: Cell viability after 48-hr treatment (Table 1); assay type: cell-based, human; conditions: Homo sapiens, HeLa; 48-hr treatment; XTT assay; read-out: IC50, HeLa
Experimental: as §1

[7] = tested on: HaCaT; assay: Cell viability after 48-hr treatment (Table 1); assay type: cell-based; conditions: Homo sapiens, HaCaT; 48-hr treatment; XTT assay; read-out: IC50, HaCaT
Experimental: (§2) Cells seeded at the concentration of 1,000 cells/well for HeLa, 5,000 cells/well for ES2 and HCT116 and 10,000-20,000 cells/well for other cell lines in 100 μL medium in 96-well plate were treated with RA series compounds at specified concentrations. […]

[8] = tested on: HT3; assay: Cell viability after 48-hr treatment (Table 1); assay type: cell-based; conditions: Homo sapiens, HT-3; 48-hr treatment; XTT assay; read-out: IC50, HT3
Experimental: as §2

[9] = tested on: RPMI8226; assay: Cell viability after 48-hr treatment (Table 1); assay type: cell-based; conditions: Homo sapiens, RPMI-8226, XTT assay
Experimental: as §2

[10] = tested on: SiHa; assay: Cell viability after 48-hr treatment (Table 1); assay type: cell-based; conditions: Homo sapiens, SiHa; 48-hr treatment; XTT assay; read-out: IC50, SiHa
Experimental: as §2

[11] = tested on: NCl-H929; assay: Cell viability after 48-hr treatment (Table 1); assay type: cell-based, human; conditions: Homo sapiens, XTT assay
Experimental: as §2

[12] = tested on: HOK-16B; assay: Cell viability after 48-hr treatment (Table 1); assay type: cell-based; conditions: 48-hr treatment; XTT assay; read-out: IC50, HOK-16B
Experimental: (§3) Cell viability was assayed using CellTiter 960 AQueous One Solution Reagent (Promega, Madison, Wis.). Cells seeded at the concentration of 1,000 cells/well for HeLa, 5,000 cells/well for ES2 and HCT116 and 10,000-20,000 cells/well for other cell lines in 100 μL medium in 96-well plate were treated with RA series compounds at specified concentrations. After the indicated periods, cells were incubated according to the manufacturer's protocol with the MTS labeling mixture for 1-2 hr and absorbance at 490 nm measured using a Benchmark Plus microplate spectrophotometer (BIO-RAD).

[13] = tested on: CasKi; assay: Cell viability after 48-hr treatment (Table 1); assay type: cell-based; conditions: Homo sapiens, Ca-Ski; 48-hr treatment; XTT assay; read-out: IC50, CasKi
Experimental: as §3

[14] = tested on: NCI-H929 cells; assay: Active caspase-3 by FACS; assay type: cell-based, human; conditions: 0.5 μM, 8 h
Experimental: NCI-H929 cells were treated with RA195 (0.5 μM) and Bz(0.5 μM) for the period of 8 h. Cells were stained for PE-conjugated Caspase-3 antibody and measured active caspase-3 by FACS.

[15] = tested on: tetraubiquitin-firefly luciferase (4UbFL) reporter in HeLa cells; assay: Cell culture assay for luciferase (4UbFL reporter); assay type: cell-based, human; conditions: 4 hr treatment
Experimental: Sub-confluent cultures of HeLa cells were transfected with 4UbFL or FL plasmids using Lipofectamine 2000 reagent (Life Technologies, Carlsbad, Calif.). […] Luciferase activity in cell lysate was determined with a luciferase assay kit (Promega, Madison, Wis.) according to the manufacturer's instructions. Bioluminescence was measured by using a Glomax Multidetection system (Promega, Madison, Wis., USA).
HeLa cells were transiently transfected with tetra ubiquitin-fused firefly luciferase (4UB-FL) plasmid. After 48 h, the transfected cells were treated with titrations of the indicated compounds for 4 h, and luciferase activity was measured. Data is expressed as a 4UB-FL fold change compared to untreated cells.

[16] = tested on: U266 cells; assay: Active caspase-3 by FACS; assay type: cell-based; conditions: 0.5 μM, 8 h
Experimental: U266 cells were treated with RA195 (0.5 μM) and Bz(0.5 μM) for the period of 8 h. Cells were stained for PE-conjugated Caspase-3 antibody and measured active caspase-3 by FACS.

[17] = tested on: HeLa cells; assay: Cell surface HSP90 staining; assay type: cell-based, human
Description: Cell surface HSP90 was detected by staining with purified anti-HSP90 mAb (Stressgen), followed by PE-conjugated anti-mouse IgG1. The data were acquired with a FACSCalibur and analyzed using CellQuest software.

[18] = tested on: TNFα-induced NFκB activation in 293 cells; assay: NFκB/FL reporter assay; assay type: cell-based; conditions: TNFα 10 ng/ml, 7 h
Experimental: 293 cells transiently transfected with either NFκB/FL (firefly luciferase reporter construct under control of an NFκB-driven promoter) or control CMV promoter-driven FL reporter construct were treated with compounds and TNFα (10 ng/ml) for 7 h. Upon the addition of luciferin, bioluminescence was measured in cell lysates using a luminometer. Results can be seen in FIG. 20.
293 cells transiently transfected with either NFκB/FL or control FL reporter genes were treated with compounds and TNFα (10 ng/ml) for 7 h. Upon the addition of luciferin, bioluminescence was measured in cell lysates using a luminometer.

[19] = tested on: cancer cells; assay: Antiproliferative activity against cancer cells (design rationale); assay type: cell-based
Description: We used Chloro and Nitro functional groups as substituent's on the aromatic ring due to their greater electron withdrawing effect at ortho (or) para (or) meta (or) both positions along with different amino acid linkages on bis-benzylidine piperidone moiety. Amino acids were chosen based in their physical characteristics like very hydrophobic (phenylalanine), strongly basic and hydrophilic (lysine), basic and hydrophilic (histidine) and amphiphilic (glycine). Commercially available Fmoc and Boc protected amino acids were used in the synthesis, and they were evaluated for their antiproliferatory activity against cancer cells.
Next we synthesized another set of compounds by converting free amine functionality to its Acetate (Ac), Acrolyl (Acr) and Benzoyl […] analogs as these units are part of many anticancer drugs because of their smaller size and feasibility to form inter molecular hydrogen bonds with proteins.
In the RA195 molecule two amino functionalities of lysine can provide more flexibility to make better analogs.

[20] = molecular target: purified 20S proteasomes (Homo sapiens, UniProt P28072+P28074+Q99436); assay: 20S proteolytic activity assay; assay type: biochemical; conditions: 1 μM, 30 min
Experimental: Actin was used as a loading control. […] In FIG. 9C-E, purified 20S proteasomes were treated for 30 min with or without compounds (1 μM) prior to the addition of the specific fluorogenic substrate for chymotryptic (9C), tryptic (9D) or PGPH (9E) hydrolytic proteasome capacities. […] DMSO was added to all samples to a final concentration of 0.1% (upper panel). The effect of DMSO is highlighted by including ubiquitin—AMC (0.5 μM) hydrolysis with 2 nM UCH37 lacking DMSO (orange, bottom panel). In FIG. 9H, purified 19S RP (500 nM) in buffer was treated with corresponding compounds 30 min at 37° C. and AMC cleavage was measured with a fluorometer for 20 min. Ubal was used as a positive control.
Release of free AMC by the enzyme reaction was determined by measuring its fluorescence at 380 nm (excitation) and 440 nm (emission). The graphs shown are representative of at least three independent determinations and each data point is the mean of ±SD of triplicate determinations.
20S proteasome cleaves the chymotryptic substrate and releases fluorescent AMC.

With `CC(=O)N[C@@H](Cc1ccccc1)C(=O)N1C/C(=C\c2ccc(Cl)c(Cl)c2)C(=O)/C(=C/c2ccc(Cl)c(Cl)c2)C1` [RA190Ac, 3,5-bis(3,4-dichlorobenzylidene)-1-(N-(1-oxo-S-3-phenyl-1-propan-2-yl)acetamide)-piperidin-4-one-HCl salt] the IC50 [1] was over 5 µM, the IC50 [2] was over 2.5 µM and the IC50 [3] was 0.05 µM. It also gave an IC50 [4] of over 2.5 µM, an IC50 [5] of 2 µM and an IC50 [6] of 0.17 µM. The IC50 [7] was over 2.5 µM, the IC50 [8] was over 5 µM and the IC50 [9] was 0.15 µM. The IC50 [10] was 1 µM, the IC50 [11] was 0.075 µM and the IC50 [12] was 0.75 µM. It also gave an IC50 [13] of 0.3 µM.
`Cl.NCCCC[C@H](NC(=O)OCc1ccccc1Cl)C(=O)N1C/C(=C\c2ccc([N+](=O)[O-])cc2)C(=O)/C(=C/c2ccc([N+](=O)[O-])cc2)C1` [RA195Bn] was tested, and the “active caspase-3” value [14] was “caused an increase in caspase-3 expression”, the “proteasome inhibition by 4UbFL stabilization (relative potency)” value [15] was “more potent than the parent molecule RA195” and the “active caspase-3” value [16] was “caused an increase in caspase-3 expression”.
In the case of `N.N.[Cl][Pt][Cl]` [cisplatin], the “surface display of HSP90” value [17] is reported as “did not induce surface display of HSP90”.
In the case of `CC(=O)N[C@@H](CCCCN)C(=O)N1C/C(=C\c2ccc(Cl)c(Cl)c2)C(=O)/C(=C/c2ccc(Cl)c(Cl)c2)C1.Cl` [RA195Ac], the “active caspase-3” value [14] is reported as “caused an increase in caspase-3 expression”, the “proteasome inhibition by 4UbFL stabilization (relative potency)” value [15] is reported as “more potent than the parent molecule RA195” and the “TNFα-induced NFκB activation” value [18] is reported as “inhibited TNFα-induced NFκB activation”. The “active caspase-3” value [16] was “caused an increase in caspase-3 expression”.
For `Cl.N[C@@H](Cc1ccccc1)C(=O)N1C/C(=C\c2ccc([N+](=O)[O-])cc2)C(=O)/C(=C/c2ccc([N+](=O)[O-])cc2)C1` [RA183], the “antiproliferative potency among analogs” value [19] was “higher potency”, the “active caspase-3” value [14] was “caused an increase in caspase-3 expression” and the “chymotryptic activity of the 20S proteasome (Suc-LLVY-AMC)” value [20] was “do not”. The “active caspase-3” value [16] was “caused an increase in caspase-3 expression”.
In the case of `O=C1/C(=C/c2ccc(Cl)c(Cl)c2)CN(C(=O)[C@H](Cc2ccccc2)NC(=O)c2ccccn2)C/C1=C\c1ccc(Cl)c(Cl)c1` [RA190P], the “antiproliferative potency among analogs” value [19] is reported as “Neither of these compounds was as good as RA190”.
With `Cl.NC(Cc1ccccc1)C(=O)N1C/C(=C\c2ccc(Cl)c(Cl)c2)C(=O)/C(=C/c2ccc(Cl)c(Cl)c2)C1` (stereo not drawn) [RA190D] the “antiproliferative potency among analogs” value [19] was “Neither of these compounds was as good as RA190”.
